The results in this text go back to patent US20220259167A1 (UNIVERSITY HEALTH NETWORK, priority 2019, published 2022).

One assay addresses Aβ 1-40 (Homo sapiens, UniProt P05067). Description: Aβ ThT aggregation (fibrillization) assay. The format is biochemical. To be noted: compound at 100 μM.
In assay [1] the target is biotinylated amyloid-beta(1-42) (bioAbeta42) (Homo sapiens, UniProt P05067). It is filed as biochemical.
The test system of a further assay is SIM-A9 cells. Description: Anti-inflammation assay: TNF-α production from LPS stimulated SIM-A9 cells (ELISA). It is filed as cell-based. The note with it: compound 2.7 μM; LPS stimulated SIM-A9 cells; read-out: TNF-α Inhibition.
[2] abbreviates: Example 2, read-out: Anti-Aβ oligomerization IC50.
[3] abbreviates: Example 5, ND = inhibition activity not detected over 200 μM, read-out: Inhibition of Aβ oligomerization, μM IC50.
The mark [4] stands for this setting: Example 3, read-out: % inhibition of Aβ fibrillization (at 100 μ M).
[5] abbreviates: Example 5, versus DMSO control, read-out: Inhibition of Aβ fibrillization at concentration 100 μM, Inhibition %.

One may read the IC50 as the concentration that gives 50% inhibition.

Values joined by “and” are separate entries in the source; they are usually repeats but may differ in a detail not shown here. Equal values may be shown once. Read-outs that look alike come from different tables or passages of the source.

biotinylated amyloid-beta(1-42) (bioAbeta42), sequence (P05067 672-713): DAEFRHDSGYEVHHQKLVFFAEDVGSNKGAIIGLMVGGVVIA
Aβ 1-40, sequence (P05067 672-711): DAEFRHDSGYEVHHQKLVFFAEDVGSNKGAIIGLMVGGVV

Turning to `CNS(=O)(=O)c1cc(C(=O)O)c(NCc2ccco2)cc1Cl` [WW032, 4-chloro-2-((furan-2-ylmethyl)amino)-5-(N-methylsulfamoyl) Benzoic Acid], the “Inhibition of Aβ fibrillization at concentration 100 μM, Inhibition %” value at Aβ 1-40 (Example 5, versus DMSO control) is reported as “Pro- fibrilliza- tion”. Besides, the figures for the IC50 in assay [1] (setting [2]) and in assay [1] (setting [3]) were 55.1 µM and 53 ± 3.37 µM, respectively.

Turning to `CN(C)S(=O)(=O)c1cc(C(=O)O)c(NCc2ccco2)cc1Cl` [WW062, 4-Chloro-5-(N, N-dimethylsulfamoyl)-2-((furan-2-ylmethyl)amino) Benzoic Acid], the “Inhibition of Aβ fibrillization at concentration 100 μM, Inhibition %” value at Aβ 1-40 (Example 5, versus DMSO control) was “Pro- fibrilliza- tion”. The concentration for half-maximal inhibition (IC50) in assay [1] (setting [3]) turned out to be 113 ± 22.8 µM.

On to `NC(=O)c1cc(C(=O)O)c(NCc2ccco2)cc1Cl` [SIV-W164, 5-Carbamoyl-4-chloro-2((furan-2-ylmethyl)amino) Benzoic Acid], for which the IC50 in assay [1] (setting [3]) is > 200 µM.

In the case of `O=C(O)c1ccc(Cl)cc1NCc1cccs1` [LD3-309, 4-Chloro-2-((thiophen-2-ylmethyl)amino)benzoic Acid], the inhibition at 2.7 µM with SIM-A9 cells was 18%.

For `CCCCCCNS(=O)(=O)c1cc(C(=O)O)c(NCc2ccco2)cc1Cl` [WW064, 4-Chloro-2-((furan-2-ylmethyl)amino)-5-(N-hexylsulfamoyl) Benzoic Acid], the inhibition at 100 µM at Aβ 1-40 (setting [4]) and at Aβ 1-40 (setting [5]) was 39.2% in each case. In addition, the half-inhibitory concentration (IC50) turned out to be 46.1 µM in assay [1] (setting [2]) and 47.8 ± 14.3 µM in assay [1] (setting [3]).

As to `CCNC(=O)c1cc(C(=O)O)c(NCc2ccco2)cc1Cl` [SIV-W174, 4-Chloro-5-(ethylcarbamoyl)-2((furan-2-ylmethyl)amino)benzoic Acid], the inhibition at 2.7 µM with SIM-A9 cells was 21%. The half-inhibitory concentration (IC50) in assay [1] (setting [3]) is > 200 µM.

In the case of `CNS(=O)(=O)c1cc(-c2noc(=O)[nH]2)c(NCc2ccco2)cc1Cl` [WW187, 2-Chloro-4-((furan-2-ylmethyl)amino)-N-methyl-5-(5-oxo-2,5-dihydro-1,2,4-oxadiazol-3-yl)benzenesulfonamide], in the assay on SIM-A9 cells, the inhibition at 2.7 µM was found to be 20%. The half-maximal inhibitory concentration (IC50) in assay [1] (setting [3]) was > 200 µM.

Take `O=C(O)c1cc(S(=O)(=O)NC2CC2)c(Cl)cc1NCc1ccco1` [WW030, 4-Chloro-5-(N-cyclopropylsulfamoyl)-2-((furan-2-ylmethyl)amino)benzoic Acid]: in assay [1] (setting [3]), the IC50 was > 200 µM.

On to `O=C(O)c1ccc(F)cc1NCc1ccco1` [WW071, 4-Fluoro-2-((furan-2-ylmethyl)amino)benzoic Acid], for which the IC50 in assay [1] (setting [3]) turned out to be 130 ± 25.8 µM.

As for `CNC(=O)c1cc(C(=O)O)c(NCc2ccco2)cc1Cl` [SIV-W168, 4-Chloro-2-((furan-2-ylmethyl)amino)-5-(methylcarbamoyl)benzoic Acid], the inhibition at 2.7 µM in the assay on SIM-A9 cells is 27%. Besides, in assay [1] (setting [3]), the half-maximal inhibitory concentration (IC50) is > 200 µM.

As for `O=C(O)c1ccc(Cl)cc1NCc1ccoc1` [LD3-310, 4-Chloro-2-((furan-3-ylmethyl)amino)benzoic Acid], the inhibition at 2.7 µM in the assay on SIM-A9 cells turned out to be 24%.

For the compound `CCNC(=O)c1cc(C(=O)OC)c(NCc2ccco2)cc1Cl` [SIV-W172, Methyl 4-chloro-5-(ethylcarbamoyl)-2-((furan-2-ylmethyl)amino)benzoate], in the assay with SIM-A9 cells, the inhibition at 2.7 µM came out at 18%.

Consider `O=C(O)c1cc(S(=O)(=O)NCCc2ccccc2)c(Cl)cc1NCc1ccco1` [WW056, 4-Chloro-2-((furan-2-ylmethyl)amino)-5-(N-phenethylsulfamoyl) Benzoic Acid], for which, in the assay on SIM-A9 cells, the inhibition at 2.7 µM is 13%. The concentration for half-maximal inhibition (IC50) in assay [1] (setting [3]) was > 200 µM.

On to `COC(=O)c1cc(C(=O)N2CCCCC2)c(Cl)cc1NCc1ccco1` [SIV-W160, Methyl 4-chloro-2-((furan-2-ylmethyl)amino)-5-(piperidine-1-carbonyl)benzoate], for which the inhibition at 2.7 µM in the assay on SIM-A9 cells stood at 25%.

In the case of `O=C(Nc1ccccc1)c1cc(C(=O)O)c(NCc2ccco2)cc1Cl` [SIV-W179, 4-Chloro-2((furan-2-ylmethyl)amino)-5-(phenylcarbamoyl)benzoic Acid], the inhibition at 2.7 µM in the assay on SIM-A9 cells amounted to 22%. Moreover, the IC50 in assay [1] (setting [3]) was > 200 µM.

`COC(=O)c1cc(C(=O)Nc2ccccc2)c(Cl)cc1NCc1ccco1` [SIV-W178, Methyl 4-chloro-2-((furan-2-ylmethyl)amino)-5-(phenylcarbamoyl)benzoate]: the inhibition at 2.7 µM in the assay with SIM-A9 cells is 12%.

On to `CNS(=O)(=O)c1cc(-c2nnn[nH]2)c(NCc2ccco2)cc1Cl` [WW121], for which the inhibition at 2.7 µM in the assay on SIM-A9 cells worked out at 2%. The IC50 in assay [1] (setting [3]) was 70.5 ± 15.7 µM.

For `CC(NS(=O)(=O)c1cc(C(=O)O)c(NCc2ccco2)cc1Cl)c1ccccc1` (stereo not drawn) [WW053, 4-Chloro-2-((furan-2-ylmethyl)amino)-5-(N-(1-phenylethyl)sulfamoyl) benzoic Acid], the figures for the IC50 in assay [1] (setting [2]) and in assay [1] (setting [3]) were 38.5 µM and 41.1 ± 20.4 µM, respectively.

For `CNS(=O)(=O)c1cc(CO)c(NCc2ccco2)cc1Cl` [WW109, 2-Chloro-4-((furan-2-ylmethyl)amino)-5-(hydroxymethyl)-N-methylbenzenesulfonamide], in the assay on SIM-A9 cells, the inhibition at 2.7 µM worked out at 21%. Besides, the IC50 in assay [1] (setting [3]) came out at 117 ± 3.95 µM.

On to `O=C(O)c1ccc(Cl)cc1NCc1ccccc1` [LD3-305, 2-(Benzylamino)-4-chlorobenzoic Acid], for which the inhibition at 2.7 µM in the assay on SIM-A9 cells was found to be 30%.

Consider `CN(C)C(=O)c1cc(C(=O)O)c(NCc2ccco2)cc1Cl` [SIV-W173, 4-Chloro-5-(dimethylcarbamoyl)-2((furan-2-ylmethyl)amino)benzoic Acid], for which the inhibition at 2.7 µM in the assay on SIM-A9 cells amounted to 25%. Also, in assay [1] (setting [3]), the IC50 was > 200 µM.

Consider `O=C(O)c1cc(S(=O)(=O)NCc2ccccc2)c(Cl)cc1NCc1ccco1` [WW035, 5-(N-benzylsulfamoyl)-4-chloro-2-((furan-2-ylmethyl)amino)benzoic Acid], for which, in assay [1] (setting [3]), the concentration for half-maximal inhibition (IC50) was > 200 µM.

As for `Cc1ccc(CNc2cc(F)ccc2C(O)C(F)(F)F)c(C)c1` (stereo not drawn) [WW-024], in the assay on SIM-A9 cells, the inhibition at 2.7 µM worked out at 11.2%.

Turning to `O=C(O)c1ccc(Cl)cc1NCCc1ccccc1` [LD3-306, 4-Chloro-2-(phenethylamino)benzoic Acid], in the assay on SIM-A9 cells, the inhibition at 2.7 µM is 21%.

As to `COc1ccc(C(=O)O)c(NCc2ccoc2)c1` [Compound 5-LV-56A], in the assay on SIM-A9 cells, the inhibition at 2.7 µM came out at 32%.

With `COc1ccc(CNS(=O)(=O)c2cc(C(=O)O)c(NCc3ccco3)cc2Cl)cc1` [WW063, 4-Chloro-2-((furan-2-ylmethyl)amino)-5-(N-(4-methoxybenzyl)sulfamoyl) Benzoic Acid], the concentration for half-maximal inhibition (IC50) in assay [1] (setting [3]) was > 200 µM.

Take `COc1c(C)ccc(CNc2cc(F)ccc2C(O)C(F)(F)F)c1OC` (stereo not drawn) [WW-028]: the inhibition at 2.7 µM with SIM-A9 cells amounted to 19.9%.

For the compound `COc1ccc(C(=O)O)c(NCc2ccccc2)c1` [Compound 5-LV-54B, 2-(Benzylamino)-4-methoxybenzoic Acid], the inhibition at 2.7 µM in the assay on SIM-A9 cells was determined as 30%.

Regarding `CCNS(=O)(=O)c1cc(C(=O)O)c(NCc2ccco2)cc1Cl` [WW057, 4-Chloro-5-(N-ethylsulfamoyl)-2-((furan-2-ylmethyl)amino) Benzoic Acid], in assay [1] (setting [3]), the IC50 was determined as 137 ± 11.9 µM.

In the case of `O=C(O)c1cc(S(=O)(=O)NC2CCCCC2)c(Cl)cc1NCc1ccco1` [WW082, 4-Chloro-5-(N-cyclohexylsulfamoyl)-2-((furan-2-ylmethyl)amino) Benzoic Acid], the inhibition at 2.7 µM in the assay with SIM-A9 cells came to 11%. Besides, the IC50 in assay [1] (setting [3]) was found to be 116 ± 13.8 µM.

Regarding `O=C(O)c1cc(C(=O)N2CCOCC2)c(Cl)cc1NCc1ccco1` [SIV-W166, 4-Chloro-2-((furan-2-ylmethyl)amino)-5-(morpholine-4-carbonyl)benzoic acid], the inhibition at 2.7 µM in the assay with SIM-A9 cells was 25%. The half-inhibitory concentration (IC50) in assay [1] (setting [3]) is > 200 µM.

Take `Cc1ccc(CNS(=O)(=O)c2cc(C(=O)O)c(NCc3ccco3)cc2Cl)cc1` [WW065, 4-Chloro-2-((furan-2-ylmethyl)amino)-5-(N-(4-methylbenzyl)sulfamoyl) Benzoic Acid]: in the assay on SIM-A9 cells, the inhibition at 2.7 µM came to 20%. In addition, the concentration for half-maximal inhibition (IC50) in assay [1] (setting [3]) was > 200 µM.

`CNS(=O)(=O)c1cc(C(=O)N(C)C)c(NCc2ccco2)cc1Cl` [WW103, 4-Chloro-2-((furan-2-ylmethyl)amino)-N, N-dimethyl-5-(N-methylsulfamoyl) Benzamide]: the inhibition at 100 µM on Aβ 1-40 (setting [4]) and on Aβ 1-40 (setting [5]) was 25.2% in each case. The concentration for half-maximal inhibition (IC50) in assay [1] (Example 5, ND = inhibition activity not detected over 200 μM, listed as SII-W103, read-out: Inhibition of Aβ oligomerization, μM IC50) is 6.5 µM and 6.56 µM.

Take `O=C(O)c1cc(C(=O)N2CCCCC2)c(Cl)cc1NCc1ccco1` [SIV-W167, 4-Chloro-2-((furan-2-ylmethyl)amino)-5-(piperidine-1-carbonyl)benzoic Acid]: the IC50 in assay [1] (setting [3]) was > 200 µM.

Turning to `COc1ccc(C(=O)O)c(NCc2ccco2)c1` [Compound 5-LV-54A], the inhibition at 2.7 µM in the assay with SIM-A9 cells turned out to be 16%.

In the case of `CNC(=O)c1cc(C(=O)OC)c(NCc2ccco2)cc1Cl` [SIV-W155, Methyl 4-chloro-2-((furan-2-ylmethyl)amino)-5-(methylcarbamoyl)benzoate], the inhibition at 2.7 µM with SIM-A9 cells is 20%.

With `COC(=O)c1cc(S(N)(=O)=O)c(Cl)cc1NCc1ccco1` [WW-161], in the assay with SIM-A9 cells, the inhibition at 2.7 µM came to 24%.

For `O=C(O)c1cc(S(=O)(=O)Nc2ccccc2)c(Cl)cc1NCc1ccco1` [SI-W080, 4-Chloro-2-((furan-2-ylmethyl)amino)-5-(N-phenylsulfamoyl) benzoic acid], the inhibition at 100 µM at Aβ 1-40 (setting [5]) is 17.4%. The IC50 in assay [1] (setting [3]) stood at 168 ± 29 µM.

With `O=C(O)c1ccc(Br)cc1NCc1ccco1` [WW073, 4-Bromo-2-((furan-2-ylmethyl)amino) Benzoic Acid], the inhibition at 2.7 µM in the assay with SIM-A9 cells was 27%. In addition, in assay [1] (setting [3]), the half-maximal inhibitory concentration (IC50) stood at 154 ± 33.8 µM.

In the case of `O=C(O)c1ccc(Cl)cc1NCc1ccco1` [WW001, 4-Chloro-2-((furan-2-ylmethyl)amino) Benzoic Acid], the inhibition at 100 µM on Aβ 1-40 (setting [5]) turned out to be 20.2%. The half-maximal inhibitory concentration (IC50) in assay [1] (setting [3]) was > 200 µM.

Take `CN(Cc1ccccc1)S(=O)(=O)c1cc(C(=O)O)c(NCc2ccco2)cc1Cl` [WW052, 5-(N-Benzyl-N-methylsulfamoyl)-4-chloro-2-((furan-2-ylmethyl)amino) benzoic Acid]: in the assay with SIM-A9 cells, the inhibition at 2.7 µM worked out at 24.1%. For the same compound, the results for the IC50 in assay [1] (setting [2]) and in assay [1] (setting [3]) were 21.7 µM and 21.9 ± 7.36 µM, respectively.
